# Results taken from patent US12528790B2, “Amide derivative having antiviral activity” (Shionogi & Co., Ltd., priority 2020, dated 2026).
# Like-named read-outs stand apart in the source and are kept apart here.
# Tests used:
# RSV A2 strain = assay: In vitro CPE (CytoPathic Effect) inhibition effect evaluation test, RSV type A; format: cell-based
# Procedure, shortened: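 EC50 is the concentration giving 50% inhibition of virus-induced cytopathic effect, fitted by nonlinear regression from CellTiter-Glo 2.0 viability. Compounds in 3-fold series were co-incubated at 37 °C with HEp-2 cells and RSV: A2 strain for 4 days, B (Wash/18537) for 5 days; uninfected wells served as control.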
# [1] = system: RSV B (Wash/18537 strain); assay: In vitro CPE (CytoPathic Effect) inhibition effect evaluation test, RSV type B; format: cell-based
# Description: The test sample is diluted in advance to an appropriate concentration with DMSO, and 3-fold series of serial dilutions were prepared on a 384-well plate (0.32 μL/well). HEp-2 cells (CCL-23; ATCC) adjusted at appropriate number (2.4×10^5 cells/mL) in 2% FBS E-MEM (prepared by adding kanamycin and FBS to Eagle's Minimum Essential Medium; Invitrogen) were added at 12.5 μL/well to the 384-well plate previously aliquoted with the test samples. The RSV A2 strain was diluted to an appropriate concentration in a culture medium and added to the 384-well plate containing the test sample at 12.5 μL/well. The culture medium was added additionally to the 384-well plate, and the test was started with 50 μL/well. Control wells were prepared with only virus-free culture medium. The plate was incubated in a 5% CO2 incubator at 37° C. for 4 days, and the plate was then placed at room temperature for 30 minutes. CellTiter-Glo (registered trademark) 2.0 assay (Promega) was added at 15 μL/well, mixed for 30 seconds, and the plate was placed for approximately 1 hour. The luminescent signal was then measured by EnVision (PerkinElmer). The inhibitory effect of the test agents on RSV-induced CPE was calculated as 0% and 100% inhibition rate for each sample concentration based on the level of remaining viable cells by CellTiter-Glo (registered trademark) 2.0, with the EC50 value for each compound calculated by nonlinear regression as the concentration that inhibits RSV-induced CPE by 50%. In the case of evaluation against RSV type B, RSV B (Wash/18537 strain) was infected in the same manner as the type A, cultured for 5 days, and quantitated in the same manner as for the A2 strain.
# [2] = human respiratory syncytial virus, inhibitory effect against RSV type A (RSV A2 strain), HEp-2 cells, CPE inhibition, read-out: EC50
# [3] = human respiratory syncytial virus, inhibitory effect against RSV type B, CPE inhibition, read-out: EC50
# [4] = human respiratory syncytial virus, HEp-2, 96 h, read-out: EC50, inhibitory effect against RSV type A (CPE inhibition)
# [5] = human respiratory syncytial virus, HEp-2, 120 h, HEp-2 cells, RSV B (Wash/18537 strain), 5 days, CellTiter-Glo, read-out: EC50, inhibitory effect against RSV type B (CPE inhibition)
# [6] = inhibitory effect against RSV type A (RSV A2 strain), HEp-2 cells, CPE inhibition, read-out: EC50
# [7] = inhibitory effect against RSV type B, CPE inhibition, read-out: EC50
Structure (SMILES),EC50 (RSV A2 strain; [2]),"EC50 [1, 3]",further results
O=C(NC1(C(=O)O)CCCCC1)c1cnc(N2CCc3cc(OCCC4CCOCC4)ccc32)nc1C(F)(F)F [Compound I-8],10 to 100 nM,10 to 100 nM,–
COCc1ccc(-c2ccc3c(c2)CCN3c2ncc(C(=O)NC3(C(=O)O)CCCCC3)c(C(F)(F)F)n2)cc1 [Compound I-9],10 to 100 nM,100 to 5000 nM,–
COc1cccc(COc2ccc3c(c2)CCN3c2ncc(C(=O)NC3(C(=O)O)C4CC5CC(C4)CC3C5)c(C(F)(F)F)n2)c1 (stereo not drawn) [Compound I-21],< 10 nM,10 to 100 nM,–
O=C(NC1(C(=O)O)C2CC3CC(C2)CC1C3)c1cnc(N2CCc3cc(OCCC4CCOCC4)ccc32)nc1C(F)(F)F (stereo not drawn) [Compound I-23],–,–,"EC50 (RSV A2 strain; [4]): 0.96 nM; EC50 [1, 5]: 16 nM"
O=C(NC1(C(=O)O)C2CC3CC(C2)CC1C3)c1cnc(N2CCc3cc(OCCN4CCOCC4)ccc32)nc1C(F)(F)F (stereo not drawn) [Compound I-31],< 10 nM,10 to 100 nM,–
O=C(NC1(C(=O)O)CCCCC1)c1ccc(N2CCc3cc(OCCC4CCOCC4)ccc32)nc1C(F)(F)F [Compound I-33],–,–,"EC50 (RSV A2 strain; [4]): 7.5 nM; EC50 [1, 5]: 110 nM"
O=C(NC1(C(=O)O)CCCCC1)c1cnc(N2CCc3cc(OC4CCN(c5ncccn5)CC4)ccc32)nc1C(F)(F)F [Compound I-36],< 10 nM,10 to 100 nM,–
O=C(NC1(C(=O)O)C2CC3CC(C2)CC1C3)c1cnc(N2CCc3cc(OC4CCN(c5ncccn5)CC4)ccc32)nc1C(F)(F)F (stereo not drawn) [Compound I-45],–,–,"EC50 (RSV A2 strain; [6]): < 10 nM; EC50 [1, 7]: < 10 nM"
O=C(NC1(C(=O)O)CCCCC1)c1cnc(N2CC3(CCOCC3)c3cc(OCCC4CCOCC4)ccc32)nc1C(F)(F)F [Compound I-56],< 10 nM,10 to 100 nM,–
Cc1nc(N2CCc3cc(OCCC4CCOCC4)ccc32)nc(C(F)(F)F)c1C(=O)NC1(C(=O)O)CCCCC1 [Compound I-72],< 10 nM,100 to 5000 nM,–
COc1ccc2c(c1)C1(CCOCC1)CN2c1ncc(C(=O)NC2(C(=O)O)C3CC4CC(C3)CC2C4)c(C(F)(F)F)n1 (stereo not drawn) [Compound I-80],–,–,"EC50 (RSV A2 strain; [6]): < 10 nM; EC50 [1, 7]: < 10 nM"
O=C(NC1(C(=O)O)CCCCC1)c1cnc(N2CC3(CCOCC3)c3cc(OC4CCN(c5ncccn5)CC4)ccc32)nc1C(F)(F)F [Compound I-81],< 10 nM,< 10 nM,–
O=C(NC1(C(=O)O)C2CC3CC(C2)CC1C3)c1cnc(N2CC3(CCOCC3)c3cc(OC4CCN(c5ncccn5)CC4)ccc32)nc1C(F)(F)F (stereo not drawn) [Compound I-82],–,–,"EC50 (RSV A2 strain; [4]): 0.27 nM; EC50 [1, 5]: 0.34 nM"
O=C(NC1(C(=O)O)C2CC3CC(C2)CC1C3)c1cnc(N2CC3(CCOCC3)c3cc(OCCC4CCOCC4)ccc32)nc1C(F)(F)F (stereo not drawn) [Compound I-83],–,–,"EC50 (RSV A2 strain; [6]): < 10 nM; EC50 [1, 7]: < 10 nM"
O=C(NC1(C(=O)O)C2CC3CC(C2)CC1C3)c1cnc(N2CC3(CCOCC3)c3cc(OCCN4CCOCC4)ccc32)nc1C(F)(F)F (stereo not drawn) [Compound I-86],–,–,"EC50 (RSV A2 strain; [6]): < 10 nM; EC50 [1, 7]: < 10 nM"
COc1nc(N2CCc3cc(OCCC4CCOCC4)ccc32)nc(C(F)(F)F)c1C(=O)NC1(C(=O)O)C2CC3CC(C2)CC1C3 (stereo not drawn) [Compound I-88],–,–,"EC50 (RSV A2 strain; [6]): < 10 nM; EC50 [1, 7]: 10 to 100 nM"
COc1ccc2c(n1)C1(CCOCC1)CN2c1ncc(C(=O)NC2(C(=O)O)C3CC4CC(C3)CC2C4)c(C(F)(F)F)n1 (stereo not drawn) [Compound I-91],–,–,"EC50 (RSV A2 strain; [6]): < 10 nM; EC50 [1, 7]: 10 to 100 nM"
O=C(NC1(C(=O)O)C2CC3CC(C2)CC1C3)c1cnc(N2CC3(CCOCC3)c3cc(OC4CCN(C5CC5)CC4)ccc32)nc1C(F)(F)F (stereo not drawn) [Compound I-92],–,–,"EC50 (RSV A2 strain; [6]): < 10 nM; EC50 [1, 7]: < 10 nM"

Structure (SMILES),EC50 (RSV A2 strain; [2]),"EC50 [1, 3]",further results
Cc1ccc2c(c1)C1(CCOCC1)CN2c1ncc(C(=O)NC2(C(=O)O)C3CC4CC(C3)CC2C4)c(C(F)(F)F)n1 (stereo not drawn) [Compound I-109],–,–,"EC50 (RSV A2 strain; [6]): < 10 nM; EC50 [1, 7]: 10 to 100 nM"
NC(=O)C1(NC(=O)c2cnc(N3CC4(CCOCC4)c4cc(OC5CCN(c6ncccn6)CC5)ccc43)nc2C(F)(F)F)C2CC3CC(C2)CC1C3 (stereo not drawn) [Compound I-135],< 10 nM,10 to 100 nM,–
O=C(NC1(C(=O)O)C2CC3CC(C2)CC1C3)c1cnc(-c2cn(C3CCOCC3)c3cc(OC4CCN(c5ncccn5)CC4)ccc23)nc1C(F)(F)F (stereo not drawn) [Compound I-146],< 10 nM,< 10 nM,–
O=C(NC1(C(=O)O)C2CC3CC(C2)CC1C3)c1ccc(-c2cn(C3CCOCC3)c3cc(OC4CCN(c5ncccn5)CC4)ccc23)nc1C(F)(F)F (stereo not drawn) [Compound I-147],< 10 nM,< 10 nM,–
O=C(NC1(C(=O)O)C2CC3CC(C2)CC1C3)c1ccc(-c2cn(-c3ccccc3)c3cc(OC4CCN(c5ncccn5)CC4)ccc23)nc1C(F)(F)F (stereo not drawn) [Compound I-148],–,–,"EC50 (RSV A2 strain; [4]): 1.5 nM; EC50 [1, 5]: 2.8 nM"
O=C(NC1(C(=O)O)C2CC3CC(C2)CC1C3)c1ccc(-c2cn(C3COC3)c3cc(OC4CCN(c5ncccn5)CC4)ccc23)nc1C(F)(F)F (stereo not drawn) [Compound I-151],< 10 nM,< 10 nM,–
O=C(NC1(C(=O)O)C2CC3CC(C2)CC1C3)c1ccc(-c2cn(C(=O)OC3CCOCC3)c3cc(OC4CCN(c5ncccn5)CC4)ccc23)nc1C(F)(F)F (stereo not drawn) [Compound I-152],< 10 nM,< 10 nM,–
O=C(N[C@@]1(C(=O)O)C2CC3C[C@@H]1C[C@](F)(C3)C2)c1cnc(N2CCc3cc(OCCC4CCOCC4)ccc32)nc1C(F)(F)F [Compound I-155],< 10 nM,10 to 100 nM,–
O=C(NC1(C(=O)O)C2CC3CC(C2)CC1C3)c1ccc(-c2nn(C3CCOCC3)c3cc(OC4CCN(c5ncccn5)CC4)ccc23)nc1C(F)(F)F (stereo not drawn) [Compound I-158],< 10 nM,< 10 nM,–
O=C(NC1(C(=O)O)C2CC3CC(C2)CC1C3)c1cnc(-c2nn(C3CCOCC3)c3cc(OC4CCN(c5ncccn5)CC4)ccc23)nc1C(F)(F)F (stereo not drawn) [Compound I-159],–,–,"EC50 (RSV A2 strain; [4]): 0.88 nM; EC50 [1, 5]: 3 nM"
CN(C)CCCc1nc(N2CCc3cc(OCCC4CCOCC4)ccc32)nc(C(F)(F)F)c1C(=O)NC1(C(=O)O)C2CC3CC(C2)CC1C3 (stereo not drawn) [Compound I-160],10 to 100 nM,100 to 5000 nM,–
O=C(NC1(C(=O)O)C2CC3CC(C2)CC1C3)c1ccc(-c2cn(C3CCC(F)(F)CC3)c3cc(OC4CCN(c5ncccn5)CC4)ccc23)nc1C(F)(F)F (stereo not drawn) [Compound I-162],–,–,"EC50 (RSV A2 strain; [4]): 0.88 nM; EC50 [1, 5]: 3.3 nM"
O=C(N[C@]1(C(=O)O)[C@@H]2CC3C[C@H]1C[C@@](F)(C3)C2)c1cnc(N2CC3(CCOCC3)c3cc(OC4CCN(c5ncccn5)CC4)ccc32)nc1C(F)(F)F [Compound I-165],–,–,"EC50 (RSV A2 strain; [4]): 0.37 nM; EC50 [1, 5]: 0.62 nM"
O=C(NC1(C(=O)O)C2CC3CC(C2)CC1C3)c1ccc(-c2cn(-c3ccccn3)c3cc(OC4CCN(c5ncccn5)CC4)ccc23)nc1C(F)(F)F (stereo not drawn) [Compound I-175],< 10 nM,< 10 nM,–
O=C(NC1(C(=O)O)C2CC3CC(C2)CC1C3)c1ccc(-c2cn(-c3ccncc3)c3cc(OC4CCN(c5ncccn5)CC4)ccc23)nc1C(F)(F)F (stereo not drawn) [Compound I-176],< 10 nM,< 10 nM,–
O=C(NC1(C(=O)O)C2CC3CC(C2)CC1C3)c1ccc(-c2cn(-c3cccnc3)c3cc(OC4CCN(c5ncccn5)CC4)ccc23)nc1C(F)(F)F (stereo not drawn) [Compound I-177],< 10 nM,< 10 nM,–
O=C(NC1(C(=O)O)C2CC3CC(C2)CC1C3)c1cnc(-c2c3ccc(OC4CCN(c5ncccn5)CC4)cc3nn2C2CCOCC2)nc1C(F)(F)F (stereo not drawn) [Compound I-182],–,–,"EC50 (RSV A2 strain; [4]): 0.39 nM; EC50 [1, 5]: 2.1 nM"
CN(C)CCCc1nc(N2CC3(CCOCC3)c3cc(OC4CCN(c5ncccn5)CC4)ccc32)nc(C(F)(F)F)c1C(=O)NC1(C(=O)O)C2CC3CC(C2)CC1C3 (stereo not drawn) [Compound I-183],< 10 nM,10 to 100 nM,–
